Laboratory results: patent US8822447B2, “Indazole compounds useful as ketohexokinase inhibitors” (Janssen Pharmaceutica NV, priority 2010, dated 2014)
Where a name gives a salt, the structure may show the parent alone.

Molecular target: KHK (Homo sapiens (Human), UniProt P50053)
Experiment: In Vitro KHK Enzyme Assay (HTMS);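 note: primary screen measuring inhibition of KHK-catalysed conversion of D-fructose into fructose 1-phosphate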
Format: biochemical
Settings: 200 μM fructose, 100 μM ATP, 2 nM KHK, 60 min at 25° C.; Fructose-1-P detected by high throughput mass spectrometry
Method: An enzymatic assay was developed to measure KHK-mediated conversion of D-fructose to Fructose-1-P (F-1-P) using High Throughput Mass Spectroscopy (HTMS) as a means of product detection. This assay served as a primary screen to evaluate the ability to inhibit KHK enzyme activity and it has been adapted to high throughput mass spectrometry (HTMS, BioTrove RapidFire™) format for higher throughput.
The compounds to be tested were dosed in 12-points concentration from 511 μM to 0.5 μM. […] The assay was carried out in 384-well plate format.

Sequence of KHK (P50053 whole entry): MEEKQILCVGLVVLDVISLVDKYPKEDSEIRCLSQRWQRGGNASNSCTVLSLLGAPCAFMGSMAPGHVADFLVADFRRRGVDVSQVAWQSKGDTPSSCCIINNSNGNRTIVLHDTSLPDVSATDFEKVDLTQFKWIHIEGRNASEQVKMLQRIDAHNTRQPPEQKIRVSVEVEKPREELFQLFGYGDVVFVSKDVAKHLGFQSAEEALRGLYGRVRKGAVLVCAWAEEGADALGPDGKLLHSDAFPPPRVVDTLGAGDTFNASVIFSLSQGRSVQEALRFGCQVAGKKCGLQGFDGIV

SMILES	IC50
Cc1nn(-c2ccccc2)c2nc(CC3CCN(C4CNC4)CC3)nc(O)c12 [Compound 90, 6-(1-Azetidin-3-yl-piperidin-4-ylmethyl)-3-methyl-1-phenyl-1H-pyrazolo[3,4-d]pyrimidin-4-ol]	> 30000 nM
CSc1nn(-c2ccccc2)c2cc(N3CCN(C(=O)c4ccccn4)CC3)ccc12 [Compound 30]	16400 nM
Cc1nn(-c2ccccc2)c2nc(C3CCN(c4cccnc4)CC3)nc(O)c12 [Compound 84, 3-Methyl-1-phenyl-6-(3,4,5,6-tetrahydro-2H-[1,3′]bipyridinyl-4-yl)-1H-pyrazolo[3,4-d]pyrimidin-4-ol]	> 30000 nM
CSc1nn(-c2ccccc2)c2cc(C(=O)c3ccc4ncn(C)c4c3)ccc12 [Compound 171, (3-Methyl-3H-benzoimidazol-5-yl)-(3-methylsulfanyl-1-phenyl-1H-indazol-6-yl)-methanone]	> 10000 nM
CCc1nn(-c2ccccc2)c2nc(N3CCN(C4CNC4)CC3)ncc12 [Compound 82, 6-(4-Azetidin-3-yl-piperazin-1-yl)-3-ethyl-1-phenyl-1H-pyrazolo[3,4-d]pyrimidine]	23000 nM
CSc1nn(-c2ccccc2)c2cc(-c3ccncc3)ccc12 [Compound 164, 3-Methylsulfanyl-1-phenyl-6-pyridin-4-yl-1H-indazole]	> 10000 nM
Cc1nn(-c2ccccc2)c2nc(-c3ccc(NC4CCNCC4)cc3)cc(O)c12 [Compound 101, 3-Methyl-1-phenyl-6-[4-(piperidin-4-ylamino)-phenyl]-1H-pyrazolo[3,4-b]pyridin-4-ol]	890 nM
COc1ccc(-n2nc(SC)c3ccc(C4=CCNCC4)cc32)cc1 [Compound 140, 1-(4-Methoxy-phenyl)-3-methylsulfanyl-6-(1,2,3,6-tetrahydro-pyridin-4-yl)-1H-indazole]	90 nM
CSc1nn(-c2ccc(N)cc2)c2cc(C(=O)NC3CCNCC3)ccc12 [Compound 111, 1-(4-Amino-phenyl)-3-methylsulfanyl-1H-indazole-6-carboxylic acid piperidin-4-ylamide]	2610 nM
CSc1nn(-c2cccc(C)c2)c2cc(C3=CCNCC3)ccc12 [Compound 147, 3-Methylsulfanyl-6-(1,2,3,6-tetrahydropyridin-4-yl)-1-(3-methylphenyl)-1H-indazole]	30 nM
CCc1nn(-c2ccccc2)c2cc(N3CCN(C4CNC4)CC3)ccc12 [Compound 44, 6-(4-(azetidin-3-yl)piperazin-1-yl)-3-ethyl-1-phenyl-1H-indazole hydrochloride]	2400 nM
CSc1nn(-c2ccccc2)c2cc(C=Cc3ccccn3)ccc12 [Compound 155, 3-Methylsulfanyl-1-phenyl-6-(2-pyridin-2-yl-vinyl)-1H-indazole]	> 10000 nM
COc1nn(-c2ccccc2)c2cc(N3CCN(C4CCNCC4)CC3)ccc12 [Compound 76, 3-Methoxy-1-phenyl-6-(4-(piperidin-4-yl)piperazin-1-yl)-1H-indazole hydrochloride]	1380 nM
CSc1nn(-c2ccc([N+](=O)[O-])cc2)c2cc(C(=O)NC3CCNCC3)ccc12 [Compound 110, 3-Methylsulfanyl-1-(4-nitro-phenyl)-1H-indazole-6-carboxylic acid piperidin-4-ylamide]	9830 nM
Cc1nn(-c2ccccc2)c2cc(N3CCN(C4CCNCC4)C3=O)ccc12 [Compound 67, 1-(3-Methyl-1-phenyl-1H-indazol-6-yl)-3-(piperidin-4-yl)imidazolidin-2-one hydrochloride]	1230 nM
Cc1nn(-c2ccccc2)c2cc(-c3ccc(N4CCNCC4)cc3)ccc12 [Compound 58, 3-Methyl-1-phenyl-6-(4-piperazin-1-yl-phenyl)-1H-indazole hydrochloride]	7500 nM
CCc1nn(-c2ccccc2)c2cc(-c3ccc(OC4CCNCC4)cc3)ccc12 [Compound 37, 3-Ethyl-1-phenyl-6-(4-(piperidin-4-yloxy)phenyl)-1H-indazole hydrochloride]	5870 nM
CSc1nn(-c2ccc([N+](=O)[O-])cc2)c2cc(C3=CCN(C(=O)CN)CC3)ccc12 [Compound 144, 2-Amino-1-{4-[3-methylsulfanyl-1-(4-nitro-phenyl)-1H-indazol-6-yl]-3,6-dihydro-2H-pyridin-1-yl}-ethanone]	> 10000 nM
COc1nn(-c2ccccc2)c2cc(-c3ccc(-n4ccnc4)cc3)ccc12 [Compound 79, 6-(4-(1H-Imidazol-1-yl)phenyl)-3-methoxy-1-phenyl-1H-indazole]	> 30000 nM
CSc1nn(-c2ccccc2)c2cc(CCC3CCNCC3)ccc12 [Compound 185, 3-Methylsulfanyl-1-phenyl-6-(2-piperidin-4-yl-ethyl)-1H-indazole]	920 nM

Results, then the molecule that gave them:

IC50	SMILES
830 nM	CSc1nn(-c2ccccc2)c2cc(N3CCN(C(=O)C4CCNCC4)CC3)ccc12 [Compound 34, (4-(3-(Methylthio)-1-phenyl-1H-indazol-6-yl)piperazin-1-yl)(piperidin-4-yl)methanone hydrochloride]
230 nM	CSc1nn(-c2ccccc2)c2cc(NC(=O)c3cccnc3)ccc12 [Compound 14, N-(3-(Methylthio)-1-phenyl-1H-indazol-6-yl)nicotinamide]
560 nM	CSc1nn(-c2ccccc2)c2cc(N3CCC(N4CCNCC4)C3)ccc12 (stereo not shown) [Compound 19, 3-(Methylthio)-1-phenyl-6-(3-(piperazin-1-yl)pyrrolidin-1-yl)-1H-indazole hydrochloride]
710 nM	CSc1nn(-c2ccccc2)c2cc(N3CC4CC3CN4)ccc12 (stereo not shown) [Compound 10, 2-(3-(methylthio)-1-phenyl-1H-indazol-6-yl)-2,5-diaza-bicyclo[2.2.1]heptane hydrochloride]
230 nM	CSc1nn(-c2ccccc2)c2cc(C=CC3CCNCC3)ccc12 [Compound 141, 3-Methylsulfanyl-1-phenyl-6-(2-piperidin-4-yl-vinyl)-1H-indazole]
600 nM	COc1cc(-c2ccc(N3CCNCC3)cc2)nc2c1c(C)nn2-c1ccccc1 [Compound 99, 4-Methoxy-3-methyl-1-phenyl-6-(4-piperazin-1-yl-phenyl)-1H-pyrazolo[3,4-b]pyridine]
680 nM	Cc1nn(-c2ccccc2)c2cc(N3CCC(N)C3)ccc12 (stereo not shown) [Compound 72, 1-(3-Methyl-1-phenyl-1H-indazol-6-yl)pyrrolidin-3-amine formic acid salt]
590 nM	CSc1nn(-c2ccccc2)c2cc(NC(=O)C3CCNC3)ccc12 (stereo not shown) [Compound 5, N-(3-(Methylthio)-1-phenyl-1H-indazol-6-yl)pyrrolidine-3-carboxamide hydrochloride]
700 nM	CSc1nn(-c2ccccc2)c2cc(NC(=O)C3(C)CCNCC3)ccc12 [Compound 158, 4-Methyl-piperidine-4-carboxylic acid (3-methylsulfanyl-1-phenyl-1H-indazol-6-yl)-amide]
710 nM	CSc1nn(-c2ccccc2)c2cc(OC3CCNCC3)ccc12 [Compound 121, 3-Methylsulfanyl-1-phenyl-6-(piperidin-4-yloxy)-1H-indazole]
560 nM	CSc1nn(-c2ccccc2)c2cc(N3CC(N4CCNCC4)C3)ccc12 [Compound 15, 3-(Methylthio)-1-phenyl-6-(3-(piperazin-1-yl)azetidin-1-yl)-1H-indazole hydrochloride]
